# In article PMC4841536, “Characterization of the Anti-HCV Activities of the New Cyclophilin Inhibitor STG-175” (PLoS ONE, 2016):
# What was measured:
# [1] = alamarBlue cytotoxicity (CC50), GT1b replicon cell line; settings: human
# Method: (§1) The anti-HCV activity of STG-175 was conducted using a panel of luciferase reporter replicon cell lines including GT1a, GT1b, GT2a, GT3a and GT4a as we described previously. The GT1a subgenomic renilla luciferase reporter replicon H77 RLucP (7) was supplied by Dr. Delaney. The GT1b subgenomic firefly luciferase reporter replicon pFK-I389/NS3-3’ [29] was supplied by Dr. Bartenschlager. The GT1B subgenomic NS3, NS5A and NS5B mutants were created via homologous recombination using the In-Fusion HD Cloning kit (Clontech) as we described previously. The GT2a genomic luciferase reporter replicon Luc-Neo-JFH-1 was generated as previously. The plasmid pFK-Luc-JFH1 was supplied from Drs. […] The CellTiter-Fluor™ Cell Viability Assay is a non-lytic fluorescence assay, which measures the number of live cells. […] Luciferase activity was determined using the Luciferase Assay System (Promega) in a Berthold luminometer. […] Viable cells continuously convert resazurin to resorufin, increasing the overall fluorescence and color of the media surrounding cells.
# (§2) Fig 2 Anti-HCV activities of STG-175 among GTs. […] Luciferase activity was determined using the Luciferase Assay System in a Berthold luminometer. […] Data are expressed as mean of relative light units and calculated EC50s are presented. […]
# [2] = alamarBlue cytotoxicity (CC50), GT3a replicon cell line; settings: human
# Method: as §1, §2
# [3] = test system: HBV AD38 in NTCP-Huh7 cells; assay: Mono-infection, HBV HBeAg ELISA; format: cell-based, hepatitis B virus; settings: 0.5 and 5 μM, added together with virus, 12 days
# Text: For mono-infections: a) human hepatoma Huh7.5.1 cells were infected with HCV (JFH-1) and viral replication was quantified by HCV core ELISA (Ortho HCV antigen ELISA kit; Ortho Clinical Diagnostics, Waco Chemicals, Inc. or HCV Core ELISA, XpressBio); b) sodium-taurocholate co-transporting polypeptide (NTCP)-positive Huh7 cells were infected with hepatitis B virus (HBV) AD38 (produced from HepAD38 cells) and viral replication was quantified by HBV HBeAg ELISA; and c) human (peripheral blood monocytic cells (PBMCs) were infected with HIV-1 (JR-CSF) and viral replication was quantified by HIV-1 capsid/p24 ELISA. PBMCs were isolated as described previously. The Scripps Research Institute Normal Blood Donor Service (TSRI NBDS) provides TSRI investigators who have Human Subjects Committee-approved protocols with a source of normal blood for their research. Donors are assured of a controlled clinical setting for their blood to be drawn by licensed phlebotomists, and investigators are assured that the donors whose specimens they obtain through the service have been screened upon entry into the program and annually thereafter for a CBC, Hepatitis B and C and HIV-1. Hemoglobin determinations at every donation protect the donor from phlebotomy-induced anemia. […]
# [4] = test system: HBV in mixed PBMCs, NTCP-Huh7 and Huh7.5.1 cells; assay: Dual/triple co-infection in cell co-cultures, HBV readout; format: cell-based, hepatitis B virus
smiles,measurement,setting,value
CC=CCC(C)C(O)C1C(=O)NC(CC)C(=O)N(C)C(CSCCCCO)C(=O)N(C)C(CC(C)(C)O)C(=O)NC(C(C)C)C(=O)N(C)C(CC(C)C)C(=O)NC(C)C(=O)NC(C)C(=O)N(C)C(CC(C)C)C(=O)N(C)C(CC(C)C)C(=O)N(C)C(C(C)C)C(=O)N1C (centres unmarked) [STG-175],CC50 at 72 h,[1],> 10 µM
same,CC50 at 72 h,[2],> 10 µM
same,HBV infection (HBeAg ELISA),[3],significantly reduced
same,HBV infection in co-infection,[4]; STG-175 added together with virus,greatly attenuated
same,pre-established HBV infection in co-infection,[4]; added 3 days post-infection and then every 3 days,decreased the viral expansion
